How the values were obtained:
B. subtilis 168 [1] = assay: fitness (endpoint OD595 vs no drug) (fraction); higher = more growth
How it was run: (§1)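 Fitness was measured as bacterial growth in 384-well plates inoculated at OD595 0.01 (30 µl, or 55 µl for S. pneumoniae). Media were TSB, LB Lennox or CY, at 37 °C. OD595 was read every 30 min for 14 h and background-subtracted against the first reading. Fitness is OD595 at the transition into stationary phase divided by the robust mean of no-drug control wells, capped at 1.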

S. aureus DSM 20231 [2] = assay: as above
How it was run: as §1

S. pneumoniae D39V [3] = assay: as above
How it was run: as §1

B. subtilis 168 [4] = assay: Bliss interaction score (quartile over a dose matrix) (fitness difference); higher = more antagonism (negative = synergy)
How it was run: (§2)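 Growth in each well was taken as OD595 at entry into stationary phase. Dividing by the plate's robust no-drug mean and capping at 1 gave fitness, and single-drug fitness was inferred from the combination data. The Bliss score, observed minus product-expected fitness, is summarised by quartiles over technical, biological and donor/recipient replicates.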

S. aureus DSM 20231 [5] = assay: as above
How it was run: as §2

S. aureus Newman = assay: as above
How it was run: as §2

S. pneumoniae D39V [6] = assay: as above
How it was run: as §2
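Throughout, for Bliss interaction score (quartile over a dose matrix): first quartile when negative (synergy) and third quartile when positive (antagonism).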

CCCCCCCCCC(=O)N[C@@H](Cc1c[nH]c2ccccc12)C(=O)N[C@H](CC(N)=O)C(=O)N[C@@H](CC(=O)O)C(=O)N[C@@H]1C(=O)NCC(=O)N[C@@H](CCCN)C(=O)N[C@@H](CC(=O)O)C(=O)N[C@H](C)C(=O)N[C@@H](CC(=O)O)C(=O)NCC(=O)N[C@H](CO)C(=O)N[C@@H]([C@H](C)CC(=O)O)C(=O)N[C@@H](CC(=O)c2ccccc2N)C(=O)O[C@@H]1C [Daptomycin] + CCC[C@@H]1C[C@@H](C(=O)N[C@@H]([C@H]2O[C@H](SC)[C@H](O)[C@@H](O)[C@H]2O)[C@@H](C)O)N(C)C1 [Lincomycin]
fitness
Conditions	partner 0.1 µg/mL	partner 0.2 µg/mL	partner 0.215 µg/mL	partner 0.4 µg/mL	partner 0.43 µg/mL	partner 0.8 µg/mL	partner 0.86 µg/mL
B. subtilis 168 [1], first compound 0.125 µg/mL	0.865	0.904	–	0.863	–	–	–
B. subtilis 168 [1], first compound 0.25 µg/mL	0.869	0.901	–	0.848	–	–	–
B. subtilis 168 [1], first compound 0.5 µg/mL	0.937	0.905	–	–	–	–	–
S. aureus DSM 20231 [2], first compound 0.5 µg/mL	0.962	0.821	–	–	–	–	–
S. aureus DSM 20231 [2], first compound 1 µg/mL	0.911	0.806	–	–	–	–	–
S. aureus DSM 20231 [2], first compound 2 µg/mL	0.937	0.817	–	–	–	–	–
S. pneumoniae D39V [3], first compound 1 µg/mL	–	0.409	0.764	0.22	0.697	0.053	0.396
S. pneumoniae D39V [3], first compound 2 µg/mL	–	0.405	0.764	0.241	0.72	0.0442	0.408
S. pneumoniae D39V [3], first compound 4 µg/mL	–	0.366	0.802	0.204	0.702	0.0329	0.411

fitness, B. subtilis 168 [1], one replicate
Conditions	first compound 0.25 µg/mL	first compound 0.5 µg/mL	first compound 1 µg/mL
partner 0.4 µg/mL	–	–	0.686
partner 0.8 µg/mL	0.851	0.788	0.647
partner 1.6 µg/mL	0.797	0.81	0.657

Conditions	Bliss interaction score
B. subtilis 168 [4]	-0.0659
S. aureus DSM 20231 [5]	0.099
S. aureus Newman	0.0732
S. pneumoniae D39V [6]	-0.133

CCCCCCCCCC(=O)N[C@@H](Cc1c[nH]c2ccccc12)C(=O)N[C@H](CC(N)=O)C(=O)N[C@@H](CC(=O)O)C(=O)N[C@@H]1C(=O)NCC(=O)N[C@@H](CCCN)C(=O)N[C@@H](CC(=O)O)C(=O)N[C@H](C)C(=O)N[C@@H](CC(=O)O)C(=O)NCC(=O)N[C@H](CO)C(=O)N[C@@H]([C@H](C)CC(=O)O)C(=O)N[C@@H](CC(=O)c2ccccc2N)C(=O)O[C@@H]1C [Daptomycin] + COc1cc(Cc2cnc(N)nc2N)cc(OC)c1OC [Trimethoprim]
fitness, B. subtilis 168 [1], one replicate
Conditions	partner 0.1 µg/mL	partner 0.125 µg/mL	partner 0.2 µg/mL	partner 0.25 µg/mL	partner 0.4 µg/mL	partner 0.5 µg/mL	partner 1 µg/mL	partner 2 µg/mL
first compound 0.125 µg/mL	0.908	0.711	0.755	–	0.533	–	0.328	0.251
first compound 0.25 µg/mL	≥ 1	–	0.756	–	0.555	–	0.226	0.161
first compound 0.5 µg/mL	0.918	–	0.657	–	0.512	–	0.144	0.149
first compound 1 µg/mL	–	0.35	–	0.22	–	0.115	–	–

fitness
Conditions	first compound 0.125 µg/mL	first compound 0.25 µg/mL	first compound 0.5 µg/mL	first compound 1 µg/mL	first compound 2 µg/mL
B. subtilis 168 [1], partner 0.125 µg/mL	–	0.692	0.659	–	–
B. subtilis 168 [1], partner 0.25 µg/mL	–	–	0.552	–	–
B. subtilis 168 [1], partner 0.5 µg/mL	0.454	–	0.446	–	–
S. aureus DSM 20231 [2], partner 0.125 µg/mL	–	–	0.788	0.745	0.839
S. aureus DSM 20231 [2], partner 0.25 µg/mL	0.573	0.553	0.645	0.657	0.695
S. aureus DSM 20231 [2], partner 0.5 µg/mL	0.128	0.0962	–	0.304	0.37
S. aureus DSM 20231 [2], partner 1 µg/mL	0.0396	0.0212	0.0174	–	–

Conditions	Bliss interaction score
B. subtilis 168 [4]	0.0723
S. aureus DSM 20231 [5]	-0.0443
S. aureus Newman	0.0713
S. pneumoniae D39V [6]	-0.192

CCN(CC)CCOC(=O)c1ccc(N)cc1 [Procaine] + COc1cc(Cc2cnc(N)nc2N)cc(OC)c1OC [Trimethoprim]
fitness, B. subtilis 168 [1], one replicate
Conditions	partner 0.1 µg/mL	partner 0.125 µg/mL	partner 0.2 µg/mL	partner 0.4 µg/mL	partner 1 µg/mL	partner 2 µg/mL
first compound 85.5 µg/mL	0.877	0.771	0.722	0.555	0.393	0.277
first compound 171 µg/mL	0.836	0.775	0.783	0.544	0.444	0.295
first compound 342 µg/mL	0.83	0.742	0.832	0.555	0.37	0.383

fitness
Conditions	first compound 85.5 µg/mL	first compound 171 µg/mL	first compound 342 µg/mL
B. subtilis 168 [1], partner 0.25 µg/mL	0.704	0.688	0.69
B. subtilis 168 [1], partner 0.5 µg/mL	0.531	0.562	0.498
S. aureus DSM 20231 [2], partner 0.125 µg/mL	0.669	0.744	0.709
S. aureus DSM 20231 [2], partner 0.25 µg/mL	0.565	0.607	0.613
S. aureus DSM 20231 [2], partner 0.5 µg/mL	0.118	0.123	0.144
S. aureus DSM 20231 [2], partner 1 µg/mL	0.0274	0.0353	0.021

Conditions	Bliss interaction score
B. subtilis 168 [4]	0.0837
S. aureus DSM 20231 [5]	-0.0543
S. aureus Newman	0.0842
S. pneumoniae D39V [6]	0.0954
